Data published in patent US5391540A, “Substituted pyridine compounds” (Rohm and Haas Company, priority 1993, dated 1995).

Legend:
Experiment in all cases: Pre-emergent herbicidal activity (Table A)
Type in all cases: in vivo
Barnyardgrass = settings: Echinochloa crus-galli, pre-emergence, Bygr, 11.2 kg/ha, 10-14 days, read-out: herbicidal rating (% inhibition)
Procedure, shortened: (§1)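 Seeds or perennial propagules set on compacted topsoil, then covered with soil mixed with a known amount of test compound applied in acetone or water carrier. Ratings assigned on a scale based on percent inhibition of each species.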

Canada thistle = settings: Cirsium arvense, pre-emergence, Cath, 11.2 kg/ha, 10-14 days, read-out: herbicidal rating (% inhibition)
Procedure, shortened: as §1

Cocklebur = settings: Xanthium strumarium, pre-emergence, Cobu, 11.2 kg/ha, 10-14 days, read-out: herbicidal rating (% inhibition)
Procedure, shortened: as §1

Common Lambsquarters = settings: Chenopodium album, pre-emergence, Colq, 11.2 kg/ha, 10-14 days, read-out: herbicidal rating (% inhibition)
Procedure, shortened: as §1

Downy Brome = settings: Bromus tectorum, pre-emergence, Dobr, 11.2 kg/ha, 10-14 days, read-out: herbicidal rating (% inhibition)
Procedure, shortened: as §1

Morningglory = settings: Ipomoea, pre-emergence, Mogl, 11.2 kg/ha, 10-14 days, read-out: herbicidal rating (% inhibition)
Procedure, shortened: as §1

Pennsylvania Smartweed = settings: pre-emergence, Pesw, 11.2 kg/ha, 10-14 days, read-out: herbicidal rating (% inhibition)
Procedure, shortened: as §1

Quackgrass = settings: pre-emergence, Rhqg, 11.2 kg/ha, 10-14 days, read-out: herbicidal rating (% inhibition)
Procedure, shortened: as §1

Rhizome Johnsongrass = settings: Sorghum halepense, pre-emergence, Rhjg, 11.2 kg/ha, 10-14 days, read-out: herbicidal rating (% inhibition)
Procedure, shortened: as §1

Velvetleaf = settings: Abutilon theophrasti, pre-emergence, Vele, 11.2 kg/ha, 10-14 days, read-out: herbicidal rating (% inhibition)
Procedure, shortened: as §1

Yellow Nutsedge = settings: Cyperus, pre-emergence, Yens, 11.2 kg/ha, 10-14 days, read-out: herbicidal rating (% inhibition)
Procedure, shortened: as §1

## CCOC(=O)c1c(C(F)(F)C(F)(F)F)nc(OC)c(C(=O)OC)c1CC(C)C [Compound 11, 3,5-pyridinedicarboxylic acid, 2-methoxy-4-(2-methylpropyl)-6-(pentafluoroethyl)-, 5-ethyl 3-methyl ester]
Barnyardgrass
  inhibition at 11200 g/ha: 75 to 100%
Canada thistle
  inhibition at 11200 g/ha: 25 to 49%
Cocklebur
  inhibition at 11200 g/ha: 0 to 24%
Common Lambsquarters
  inhibition at 11200 g/ha: 75 to 100%
Downy Brome
  inhibition at 11200 g/ha: 75 to 100%
Morningglory
  inhibition at 11200 g/ha: 50 to 74%
Pennsylvania Smartweed
  inhibition at 11200 g/ha: 75 to 100%
Quackgrass
  inhibition at 11200 g/ha: 75 to 100%
Rhizome Johnsongrass
  inhibition at 11200 g/ha: 0 to 24%
Velvetleaf
  inhibition at 11200 g/ha: 25 to 49%
Yellow Nutsedge
  inhibition at 11200 g/ha: 75 to 100%

## CCOC(=O)c1c(OC(C)C)nc(C(F)(F)F)c(C(=O)OC)c1CC(C)C [Compound 5, 3,5-pyridinedicarboxylic acid, 2-(1-methylethoxy)-4-(2-methylpropyl)-6-(trifluoromethyl)-, 3-ethyl 5-methyl ester]
Barnyardgrass
  inhibition at 11200 g/ha: 75 to 100%
Canada thistle
  inhibition at 11200 g/ha: 0 to 24%
Cocklebur
  inhibition at 11200 g/ha: 0 to 24%
Common Lambsquarters
  inhibition at 11200 g/ha: 75 to 100%
Downy Brome
  inhibition at 11200 g/ha: 75 to 100%
Morningglory
  inhibition at 11200 g/ha: 0 to 24%
Pennsylvania Smartweed
  inhibition at 11200 g/ha: 25 to 49%
Quackgrass
  inhibition at 11200 g/ha: 50 to 74%
Rhizome Johnsongrass
  inhibition at 11200 g/ha: 75 to 100%
Velvetleaf
  inhibition at 11200 g/ha: 0 to 24%
Yellow Nutsedge
  inhibition at 11200 g/ha: 0 to 24%

## COC(=O)c1c(C(F)(F)F)nc(OC)c(N=CSC)c1CC(C)C [Compound 58, 3-pyridinecarboxylic acid, 6-methoxy-4-(2-methylpropyl)-5-[(methylthiomethylene)]amino-2-(trifluoromethyl)-, methyl ester]
Barnyardgrass
  inhibition at 11200 g/ha: 75 to 100%
Canada thistle
  inhibition at 11200 g/ha: 0 to 24%
Cocklebur
  inhibition at 11200 g/ha: 0 to 24%
Common Lambsquarters
  inhibition at 11200 g/ha: 75 to 100%
Downy Brome
  inhibition at 11200 g/ha: 75 to 100%
Morningglory
  inhibition at 11200 g/ha: 25 to 49%
Pennsylvania Smartweed
  inhibition at 11200 g/ha: 75 to 100%
Quackgrass
  inhibition at 11200 g/ha: 75 to 100%
Rhizome Johnsongrass
  inhibition at 11200 g/ha: 0 to 24%
Velvetleaf
  inhibition at 11200 g/ha: 25 to 49%
Yellow Nutsedge
  inhibition at 11200 g/ha: 0 to 24%

## COc1nc(C(F)(F)F)c(C(=O)SC)c(CC(C)C)c1C(=O)SC [Compound 47, 3,5-pyridinedicarbothioic acid, 2-methoxy-4-(2-methylpropyl)-6-(trifluoromethyl)-, S,S,-dimethyl ester]
Barnyardgrass
  inhibition at 11200 g/ha: 75 to 100%
Canada thistle
  inhibition at 11200 g/ha: 75 to 100%
Cocklebur
  inhibition at 11200 g/ha: 25 to 49%
Common Lambsquarters
  inhibition at 11200 g/ha: 75 to 100%
Downy Brome
  inhibition at 11200 g/ha: 75 to 100%
Morningglory
  inhibition at 11200 g/ha: 75 to 100%
Pennsylvania Smartweed
  inhibition at 11200 g/ha: 75 to 100%
Quackgrass
  inhibition at 11200 g/ha: 75 to 100%
Rhizome Johnsongrass
  inhibition at 11200 g/ha: 75 to 100%
Velvetleaf
  inhibition at 11200 g/ha: 75 to 100%
Yellow Nutsedge
  inhibition at 11200 g/ha: 75 to 100%

## COC(=O)c1c(C(F)(F)F)[nH]c(=O)c(C#N)c1CC(C)C [Compound 22, 3-pyridinecarboxylic acid, 5-cyano-1,6-dihydro-4-(2-methylpropyl)-6-oxo-2-(trifluoromethyl)-, methyl ester]
Barnyardgrass
  inhibition at 11200 g/ha: 0 to 24%
Canada thistle
  inhibition at 11200 g/ha: 0 to 24%
Cocklebur
  inhibition at 11200 g/ha: 0 to 24%
Common Lambsquarters
  inhibition at 11200 g/ha: 0 to 24%
Downy Brome
  inhibition at 11200 g/ha: 0 to 24%
Morningglory
  inhibition at 11200 g/ha: 0 to 24%
Pennsylvania Smartweed
  inhibition at 11200 g/ha: 0 to 24%
Quackgrass
  inhibition at 11200 g/ha: 0 to 24%
Rhizome Johnsongrass
  inhibition at 11200 g/ha: 0 to 24%
Velvetleaf
  inhibition at 11200 g/ha: 0 to 24%
Yellow Nutsedge
  inhibition at 11200 g/ha: 0 to 24%

## CCOC(=O)c1c(OC)nc(C(F)(F)Cl)c(C(=O)OC)c1CC(C)C [Compound 29, 3,5-pyridinedicarboxylic acid, 2-(chlorodifluoromethyl)-6-methoxy-4-(2-methylpropyl)-, 5-ethyl 3-methyl ester]
Barnyardgrass
  inhibition at 11200 g/ha: 75 to 100%
Canada thistle
  inhibition at 11200 g/ha: 0 to 24%
Cocklebur
  inhibition at 11200 g/ha: 0 to 24%
Common Lambsquarters
  inhibition at 11200 g/ha: 75 to 100%
Downy Brome
  inhibition at 11200 g/ha: 75 to 100%
Morningglory
  inhibition at 11200 g/ha: 75 to 100%
Pennsylvania Smartweed
  inhibition at 11200 g/ha: 75 to 100%
Quackgrass
  inhibition at 11200 g/ha: 75 to 100%
Rhizome Johnsongrass
  inhibition at 11200 g/ha: 25 to 49%
Velvetleaf
  inhibition at 11200 g/ha: 75 to 100%
Yellow Nutsedge
  inhibition at 11200 g/ha: 25 to 49%

## COc1nc(C(F)(F)F)c(C(=O)n2cccn2)c(C2CCC2)c1C(=O)n1cccn1 [Compound 59, 4-cyclobuty1-2-methoxy-3,5-bis(1H-pyrazo1-1-ylcarbonyl)-6-(trifluoromethyl)-pyridine]
Barnyardgrass
  inhibition at 11200 g/ha: 75 to 100%
Canada thistle
  inhibition at 11200 g/ha: 0 to 24%
Cocklebur
  inhibition at 11200 g/ha: 0 to 24%
Common Lambsquarters
  inhibition at 11200 g/ha: 75 to 100%
Downy Brome
  inhibition at 11200 g/ha: 75 to 100%
Morningglory
  inhibition at 11200 g/ha: 75 to 100%
Pennsylvania Smartweed
  inhibition at 11200 g/ha: 75 to 100%
Quackgrass
  inhibition at 11200 g/ha: 75 to 100%
Rhizome Johnsongrass
  inhibition at 11200 g/ha: 0 to 24%
Velvetleaf
  inhibition at 11200 g/ha: 50 to 74%
Yellow Nutsedge
  inhibition at 11200 g/ha: 0 to 24%
